Data on 17 compounds can be found in patent publication US7625894B2, “Pyrrolo[2,3-d]Pyrimidines as Protein Tyrosine Kinase Inhibitors” (Novartis AG, priority 2004, dated 2009).

The term IC50 denotes the concentration that gives 50% inhibition.

SMILES strings stand for the structures.

In one assay the target is T1, c-Raf-1 (Homo sapiens, UniProt P04049).
T1 construct: made in house; host or cells: Sf21 insect cells, triple baculovirus infection (GST-c-Raf-1, v-Ras, v-Src)
Kind of assay: c-Raf-1 protein kinase assay. It counts as biochemical. More on the design: dose or concentration left out as unconfirmed. The method, then:
c-Raf-1 protein kinase assay: Recombinant c-Raf-1 protein is obtained by triple infection of Sf21 cells with GST-c-Raf-1 recombinant baculovirus together with v-Src and v-Ras recombinant baculoviruses that are required for active c-Raf-1 kinase production (Williams et al., PNAS 1992; 89:2922-6). Active Ras (v-Ras) is required to recruit c-Raf-1 to the cell membrane and v-Src to phosphorylate c-Raf-1 to fully activate it. Cells are seeded at 2.5×10^7 cells per 150 mm dish and allowed to attach to a 150 mm dish for 1 hr at RT. Media (SF900II containing 10% FBS) is aspirated and recombinant baculovirus GST-c-Raf-1, v-Ras and v-Src are added at MOI of 3.0, 2.5 and 2.5, respectively, in a total volume of 4-5 mL. Cells are incubated for 1 hr at RT and then 15 mL of medium is added. Infected cells are incubated for 48-72 hr at 27° C. Infected Sf21 cells are scraped and collected into a 50 mL tube and centrifuged for 10 min at 4° C. at 1100 g in a Sorvall centrifuge. The cell pellet is washed once with ice cold PBS and lysed with 0.6 mL lysis buffer per 2.5×10^7 cells. Complete lysis of cells is achieved after 10 min on ice with occasional pipetting. The cell lysates are centrifuged for 10 min at 4° C. at 14,500 g in a Sorvall centrifuge with SS-34 rotor and the supernatant is transferred to a fresh tube and stored at −80° C. c-Raf-1 is purified from cell lysates using 100 μL of packed glutathione-sepharose 4B beads equilibrated in ice cold PBS per 2.5×10^7 cells. GST-c-Raf-1 is allowed to bind to the beads at 4° C. for 1 hr with rocking. Bound GST-c-Raf-1 with beads is transferred to a column. The column is washed once with lysis buffer and twice with ice cold Tris buffered saline. Ice cold elution buffer is added and column flow is stopped to allow the free glutathione to disrupt the interaction of GST-c-Raf-1 with glutathione sepharose beads. Fractions (1 mL) are collected into pre-chilled tubes. Each tube contains 10% glycerol (final concentration) to maintain kinase activity during freeze thaw cycles. Purified fractions of GST-c-Raf-1 kinase protein are stored at −80° C.
IκB is used as substrate for the c-Raf-1 kinase. IκB is expressed in bacteria as a His-tagged protein BL21. LysS bacteria containing the IκB plasmid are grown to an OD600 of 0.6 in LB medium, then induced to express the IκB with IPTG (final concentration of 1 mM) for 3 hrs at 37° C. and then bacteria are lysed by sonication (microtip limit setting for 3 times at 1 min each in sonication buffer [50 mM Tris pH 8.0, 1 mM DTT, 1 mM EDTA] and centrifuged at 10,000 g for 15 min. The supernatant is mixed with ammonium sulfate to give a final concentration of 30%. This mixture is rocked for 15 min at 4 C then spun at 10,000 g for 15 min. The pellet is resuspended in binding buffer (Novagen) containing 10 mM BSA. This solution is applied to Ni-agarose (Novagen) and washed according to the Novagen manual. IκB is eluted from the column using elution buffer (0.4 M imidazole, 0.2 M NaCl, 8 mM Tris pH 7.9). Fractions containing protein are dialysed in 50 mM Tris pH 8, 1 mM DTT. The activity of c-Raf-1 protein kinase is assayed in the presence or absence of inhibitors, by measuring the incorporation of ^33P from [γ^33P] ATP into IκB. The assay is carried out in 96-well plates at ambient temperature for 60 min. It contains (total volume of 30 μL): c-Raf-1 kinase (400 ng), 25 mM Tris.HCl, pH 7.5, 5 mM MgCl2, 5 mM MnCl2, 10 μM Na3VO4, 1 mM DTT and 0.3 μCi/assay [γ^33P]-ATP (10 μM ATP) using 600 ng IκB in the presence of 1% DMSO. Reactions are terminated by adding 10 μL of 250 mM EDTA and 30 μL of the reaction mixture is transferred onto Immobilon-PVDF membrane (Millipore, Bedford, Mass., USA) previously soaked for 5 min with methanol, rinsed with water, then soaked for 5 min with 0.5% H3PO4 and mounted on vacuum manifold with disconnected vacuum source. After spotting all samples, vacuum is connected and each well rinsed with 200 μL 0.5% H3PO4. […]

The target of another assay is T2, c-Abl (Homo sapiens, UniProt P00519).
T2 construct: The His-tagged kinase domain of c-Abl is cloned and expressed in the baculovirus/Sf9 system; His; made in house; host or cells: baculovirus/Sf9
T2 sequence (P00519 242-493 limits assumed): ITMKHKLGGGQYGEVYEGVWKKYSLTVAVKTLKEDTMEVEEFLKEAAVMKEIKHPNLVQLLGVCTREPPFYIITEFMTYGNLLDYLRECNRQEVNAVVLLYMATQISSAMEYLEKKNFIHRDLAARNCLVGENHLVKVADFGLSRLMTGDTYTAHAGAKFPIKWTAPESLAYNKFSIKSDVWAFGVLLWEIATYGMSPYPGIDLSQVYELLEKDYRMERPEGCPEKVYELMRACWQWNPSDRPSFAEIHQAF
Kind of assay: Test for activity against c-Abl protein tyrosine kinase (filter binding assay). It counts as biochemical. The method, then: Test for activity against c-Abl protein tyrosine kinase. The test is conducted as a filter binding assay as follows: The His-tagged kinase domain of c-Abl is cloned and expressed in the baculovirus/Sf9 system as described by Bhat et al., J. Biol. Chem. 272, 16170-5 (1997). A protein of 37 kD (c-Abl kinase) is purified by a two-step procedure over a cobalt metal chelate column followed by an anion exchange column with a yield of 1-2 mg/L of Sf9 cells. The purity of the c-Abl kinase is >90% as judged by SDS-PAGE after Coomassie blue staining. The assay contains: c-Abl kinase (50 ng), 20 mM Tris.HCl, pH 7.5, 10 mM MgCl2, 10 μM Na3VO4, 1 mM DTT and 0.06 μCi/assay [γ^33 P]-ATP (5 μM ATP) using 30 μg/mL poly-Ala,Glu,Lys,Tyr-6:2:5:1 (Poly-AEKY, Sigma P1152) in the presence of 1% DMSO, total volume of 30 μL. Reactions are terminated by adding 10 μL of 250 mM EDTA, and 30 μL of the reaction mixture is transferred onto Immobilon-PVDF membrane (Millipore, Bedford, Mass., USA) previously soaked for 5 min with methanol, rinsed with water, then soaked for 5 min with 0.5% H3PO4 and mounted on vacuum manifold with disconnected vacuum source. After spotting all samples, vacuum is connected and each well rinsed with 200 μL 0.5% H3PO4. Membranes are removed and washed on a shaker with 0.5% H3PO4 (4 times) and once with ethanol. Membranes are counted after drying at ambient temperature, mounting in Packard TopCount 96-well frame, and addition of 10 μL/well of Microscint™ (Packard).

T1 sequence (P04049 whole entry): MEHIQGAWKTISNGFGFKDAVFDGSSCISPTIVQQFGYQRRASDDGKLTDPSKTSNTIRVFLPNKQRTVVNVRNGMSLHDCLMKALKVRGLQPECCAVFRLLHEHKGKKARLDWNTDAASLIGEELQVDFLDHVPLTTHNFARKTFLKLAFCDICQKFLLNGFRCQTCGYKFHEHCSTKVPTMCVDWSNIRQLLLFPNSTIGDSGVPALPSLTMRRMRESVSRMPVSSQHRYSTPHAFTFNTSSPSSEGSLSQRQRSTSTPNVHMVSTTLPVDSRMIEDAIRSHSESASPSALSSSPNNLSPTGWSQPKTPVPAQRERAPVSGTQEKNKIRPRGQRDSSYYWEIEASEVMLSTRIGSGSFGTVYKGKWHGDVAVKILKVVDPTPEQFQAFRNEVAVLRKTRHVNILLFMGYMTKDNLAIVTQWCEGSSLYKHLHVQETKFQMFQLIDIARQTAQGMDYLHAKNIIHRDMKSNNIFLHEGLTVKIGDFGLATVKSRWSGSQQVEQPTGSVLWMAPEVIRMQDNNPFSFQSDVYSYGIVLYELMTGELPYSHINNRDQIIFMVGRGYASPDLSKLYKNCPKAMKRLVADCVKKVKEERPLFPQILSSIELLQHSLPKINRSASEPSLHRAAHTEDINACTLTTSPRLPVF

For the compound `CN1CCN(C(=O)c2ccc(-c3cc4c(N(C)C)ncnc4[nH]3)cc2)CC1` [Example 3, [4-(4-Dimethylamino-7H-pyrrolo[2,3-d]pyrimidin-6-yl)-phenyl]-(4-methyl-piperazin-1-yl)-methanone], at c-Raf-1, the “c-Raf-1/ %-inh. [%]” value turned out to be 51%. The compound also had an IC50 at c-Abl of 19 nM.
In the case of `CN1CCN(Cc2ccc(-c3cc4c(N(C)C)ncnc4[nH]3)cc2)CC1` [Example 4, Dimethyl-{6-[4-(4-methyl-piperazin-1-ylmethyl)-phenyl]-7H-pyrrolo[2,3-d]pyrimidin-4-yl}-amine], on c-Raf-1, the “c-Raf-1/ %-inh. [%]” value turned out to be 40%. The compound also displayed an IC50 on c-Abl of 32 nM.
On the same counts, the results for `CCN(CC)CCCNC(=O)c1ccc(-c2cc3c(N(C)C)ncnc3[nH]2)cc1` [Example 5, N-(3-Diethylamino-propyl)-4-(4-dimethylamino-7H-pyrrolo[2,3-d]pyrimidin-6-yl)-benzamide] are 48% and 21 nM.
The matching figures for `CN(C)c1ncnc2[nH]c(-c3ccc(C(=O)N4CCOCC4)cc3)cc12` [Example 6, [4-(4-Dimethylamino-7H-pyrrolo[2,3-d]pyrimidin-6-yl)-phenyl]-morpholin-4-yl-methanone]: 63% and 2.6 nM.
`CN(C)c1ncnc2[nH]c(-c3ccc(C(=O)NCCCN4CCOCC4)cc3)cc12` [Example 7, 4-(4-Dimethylamino-7H-pyrrolo[2,3-d]pyrimidin-6-yl)-N-(3-morpholin-4-yl-propyl)-benzamide]: on c-Abl, the IC50 worked out at 25 nM.
Consider `CNc1ncnc2[nH]c(-c3ccc(C(=O)N4CCN(C)CC4)cc3)cc12` [Example 12, [4-(4-Methylamino-7H-pyrrolo[2,3-d]pyrimidin-6-yl)-phenyl]-(4-methyl-piperazin-1-yl)-methanone], for which the “c-Raf-1/ %-inh. [%]” value at c-Raf-1 turned out to be 22%. Besides, on c-Abl, the half-inhibitory concentration (IC50) worked out at 4 nM.
The matching figures for `CN1CCN(C(=O)c2ccc(-c3cc4c(NCCCO)ncnc4[nH]3)cc2)CC1` [Example 15, {4-[4-(3-Hydroxy-propylamino)-7H-pyrrolo[2,3-d]pyrimidin-6-yl]-phenyl}-(4-methyl-piperazin-1-yl)-methanone]: 64% and 14 nM.
The matching figures for `CNc1ncnc2[nH]c(-c3ccc(CN4CCN(C)CC4)cc3)cc12` [Example 16, Methyl-{6-[4-(4-methyl-piperazin-1-ylmethyl)-phenyl]-7H-pyrrolo[2,3-d]pyrimidin-4-yl}-amine]: 67% and 11 nM.
Turning to `CCCNc1ncnc2[nH]c(-c3ccc(C(=O)N4CCN(C)CC4)cc3)cc12` [Example 17, (4-Methyl-piperazin-1-yl)-[4-(4-propylamino-7H-pyrrolo[2,3-d]pyrimidin-6-yl)-phenyl]-methanone], at c-Raf-1, the “c-Raf-1/ %-inh. [%]” value was found to be 100%. The IC50 at c-Abl was found to be 5 nM.
The matching figures for `CCCNc1ncnc2[nH]c(-c3ccc(CN4CCN(C)CC4)cc3)cc12` [Example 18, {6-[4-(4-Methyl-piperazin-1-ylmethyl)-phenyl]-7H-pyrrolo[2,3-d]pyrimidin-4-yl}-propyl-amine]: 100% and 6 nM.
Regarding `CCCN(C)c1ncnc2[nH]c(-c3ccc(CN4CCN(C)CC4)cc3)cc12` [Example 19, Methyl-{6-[4-(4-methyl-piperazin-1-ylmethyl)-phenyl]-7H-pyrrolo[2,3-d]pyrimidin-4-yl}-propyl-amine], the “c-Raf-1/ %-inh. [%]” value on c-Raf-1 is on record as 100%. This compound also had an IC50 on c-Abl of 11 nM.
With `CN(C)c1ncnc2[nH]c(-c3ccc(Cn4ccnc4)cc3)cc12` [Example 24, [6-(4-Imidazol-1-ylmethyl-phenyl)-7H-pyrrolo[2,3-d]pyrimidin-4-yl]-dimethylamine], the “c-Raf-1/ %-inh. [%]” value at c-Raf-1 amounted to 100%. The compound further displayed an IC50 at c-Abl of 11 nM.
For the compound `CN(C)c1ncnc2[nH]c(-c3ccc(Cc4ccc[nH]4)cc3)cc12` [Example 25, Dimethyl-{6-[4-(1H-pyrrol-2-ylmethyl)-phenyl]-7H-pyrrolo[2,3-d]pyrimidin-4-yl}-amine], on c-Raf-1, the “c-Raf-1/ %-inh. [%]” value turned out to be 96%. Moreover, on c-Abl, the IC50 was determined as 9 nM.
`CN(C)c1ncnc2[nH]c(-c3ccc(Cn4cnnn4)cc3)cc12` [Example 27, Dimethyl-[6-(4-tetrazol-1-ylmethyl-phenyl)-7H-pyrrolo[2,3-d]pyrimidin-4-yl]-amine]: the “c-Raf-1/ %-inh. [%]” value on c-Raf-1 stood at 100%. Besides, on c-Abl, the IC50 stood at 10 nM.
Regarding `CN(C)c1ncnc2[nH]c(-c3ccc(CNCCCO)cc3)cc12` [Example 28, 3-[4-(4-Dimethylamino-7H-pyrrolo[2,3-d]pyrimidin-6-yl)-benzylamino]-propan-1-ol], on c-Raf-1, the “c-Raf-1/ %-inh. [%]” value was determined as 80%.
On the same count and under the same terms, as for `COCCN(C)Cc1ccc(-c2cc3c(N(C)C)ncnc3[nH]2)cc1` [Example 29, [6-(4-{[(2-Methoxy-ethyl)-methyl-amino]-methyl}-phenyl)-7H-pyrrolo[2,3-d]pyrimidin-4-yl]-dimethyl-amine], the figure is 77%.
Take `CCC(O)(CC)c1ccc(-c2cc3c(NCCCn4cccc4)ncnc3[nH]2)cc1` [Example 33, 3-{4-[4-(3-Pyrrol-1-yl-propylamino)-7H-pyrrolo[2,3-d]pyrimidin-6-yl]-phenyl}-pentan-3-ol]: the “c-Raf-1/ %-inh. [%]” value on c-Raf-1 was 48%. The same compound came in with an IC50 at c-Abl of 130 nM.
